Measured values taken from patent US20020115661A1, “Method for treating chronic obstructive pulmonary disease” (priority 2000, published 2002).

How the values were obtained:
[1] = Food effect (high-fat meal) single-dose study in healthy subjects; assay type: in vivo, human; conditions: for Tmax: human, plasma, oral, 150 mg
[2] = Plasma CI-1034 concentrations in anesthetized dogs; assay type: in vivo; conditions: intravenous, dog; for concentration at 15 min: 15 minutes postdose; for concentration at 30 min: 30 minutes postdose; for concentration at 60 min: 60 minutes postdose
rat ETB receptors = molecular target: T1, rat ETB receptors (Rattus norvegicus, UniProt P21451); test: [125I]ET-3 binding, membranes from rat cerebellum
T1 construct: from tissue
T1 sequence (P21451 27-442): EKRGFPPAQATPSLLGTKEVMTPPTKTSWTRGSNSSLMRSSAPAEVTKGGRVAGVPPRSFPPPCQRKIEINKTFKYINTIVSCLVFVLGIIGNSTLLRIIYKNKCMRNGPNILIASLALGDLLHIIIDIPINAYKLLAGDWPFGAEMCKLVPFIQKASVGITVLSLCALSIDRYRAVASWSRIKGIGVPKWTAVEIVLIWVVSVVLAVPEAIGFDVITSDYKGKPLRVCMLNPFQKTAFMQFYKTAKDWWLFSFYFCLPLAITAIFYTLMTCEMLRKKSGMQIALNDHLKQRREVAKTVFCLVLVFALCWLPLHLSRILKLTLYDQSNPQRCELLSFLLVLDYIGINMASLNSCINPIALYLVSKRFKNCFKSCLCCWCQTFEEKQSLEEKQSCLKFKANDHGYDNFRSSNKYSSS
Text: (§1) Relative binding activities are given below in TABLE 3.

[3] = CI-1034 plasma concentration after oral dose in rats; assay type: in vivo; conditions: rat, 24 hours after 30 mg/kg oral dose
Text: (§2) Vehicle-treated rats responded to the bET-1 challenge with peak increases in mean arterial pressure (MAP) of 58±2 mm Hg (N=7); baseline MAP was 82±5 mm Hg.

[4] = Thermal properties, hygroscopicity and stability; assay type: physicochemical
[5] = Octanol-aqueous partition coefficient, shake-flask method with HPLC; assay type: physicochemical
Description: Partition Coefficient: The octanol-aqueous partition coefficient at various pH values was determined by the shake-flask method using HPLC for measurement of the amount of compound in each phase.

[6] = PO bioavailability in monkeys; conditions: monkey, in vivo
human ETA receptors = molecular target: T2, human ETA receptors (Homo sapiens, UniProt P25101); test: Saturation binding of [125I]ET-1, Scatchard analysis (Ltk- cell membranes)
T2 construct: expressed in transfected cells; host or cells: Ltk- cells (mouse fibroblast, thymidine kinase deficient)
T2 sequence (P25101 21-427): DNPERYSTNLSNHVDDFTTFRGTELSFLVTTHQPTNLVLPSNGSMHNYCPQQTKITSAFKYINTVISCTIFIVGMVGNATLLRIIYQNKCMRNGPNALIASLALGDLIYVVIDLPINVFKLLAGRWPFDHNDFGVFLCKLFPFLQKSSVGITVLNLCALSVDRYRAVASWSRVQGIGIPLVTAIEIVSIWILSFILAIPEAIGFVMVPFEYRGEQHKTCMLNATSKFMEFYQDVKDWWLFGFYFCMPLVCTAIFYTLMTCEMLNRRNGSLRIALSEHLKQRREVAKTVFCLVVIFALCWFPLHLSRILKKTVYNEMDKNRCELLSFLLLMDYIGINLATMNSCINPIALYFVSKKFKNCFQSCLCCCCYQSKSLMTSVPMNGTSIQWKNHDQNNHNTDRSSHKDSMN

rat ETA receptors = molecular target: T3, rat ETA receptors (Rattus norvegicus, UniProt P26684); test: [125I]ET-1 binding, membranes from rat A10 cells
T3 construct: endogenous in cells
T3 sequence (P26684 21-426): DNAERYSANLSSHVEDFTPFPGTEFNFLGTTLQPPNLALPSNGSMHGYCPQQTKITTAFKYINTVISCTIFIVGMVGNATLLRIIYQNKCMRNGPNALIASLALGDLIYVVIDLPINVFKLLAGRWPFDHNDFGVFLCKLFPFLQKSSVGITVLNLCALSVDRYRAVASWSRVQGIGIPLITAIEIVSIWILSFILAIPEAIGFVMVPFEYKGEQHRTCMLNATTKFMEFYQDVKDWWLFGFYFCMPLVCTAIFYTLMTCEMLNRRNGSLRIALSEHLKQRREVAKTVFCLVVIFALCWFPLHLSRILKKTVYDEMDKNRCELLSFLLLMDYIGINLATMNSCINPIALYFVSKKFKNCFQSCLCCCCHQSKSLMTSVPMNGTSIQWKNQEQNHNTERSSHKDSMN
Text: as §1

[7] = test system: bET-1 pressor response (ETA receptors); test: Blockade of bET-1 induced pressor responses in rats; assay type: in vivo, rat
Text: as §2

[8] = test system: rat, dog, monkey, and human hepatocyte preparations; test: Incubations with hepatocyte preparations; assay type: in vitro ADME; conditions: monkey, and human hepatocytes
healthy subjects = test: Tolerance and safety in Phase 1 studies in healthy subjects; assay type: in vivo, human
Solubility = assay type: physicochemical
Description: The compound acts as a base, raising the pH of the water to a measured value of 8.9 for a 100 mg/mL solution.
CI-1034 is insoluble in hexane and isopropanol.

In the case of `CCc1cc(C2=C(C(=O)[O-])N(c3ccccc3C(F)(F)F)S(=O)(=O)c3ccccc32)cc2c1OCO2.[K+]` [CI-1034, 4-(7-Ethyl-1,3-benzodioxol-5-yl)-2-[2-(trifluoromethyl)phenyl]-2H-1 ,2-benzothiazine-3-carboxylic acid 1,1-dioxide monopotassium salt], the Tmax ([1]; fasted state) is reported as 1.26 h, the Tmax ([1]; with high-fat meal) is reported as 3.5 h and the “mean AUC(0-∞) lower with high-fat breakfast versus fasted” value ([1]; single dose) is reported as “approximately 16%”. The “mean Cmax lower with high-fat breakfast versus fasted” value ([1]; single dose) was “approximately 50%”, the concentration at 15 min ([2]; 30 mg/kg) was 221 µg/mL and the concentration at 30 min ([2]; 30 mg/kg) was 209 µg/mL. For the same compound, the concentration at 60 min ([2]; 30 mg/kg) was 157 µg/mL, the concentration at 5 min ([2]; 40 mg/kg, 5 minutes postdose, N = 1) was 395 µg/mL and the concentration at 15 min ([2]; 40 mg/kg, N = 1) was 327 µg/mL. The concentration at 30 min ([2]; 40 mg/kg, N = 1) was 267 µg/mL, the concentration at 60 min ([2]; 40 mg/kg, N = 1) was 230 µg/mL and the concentration at 15 min ([2]; 60 mg/kg) was 427 µg/mL. It also gave a concentration at 30 min ([2]; 60 mg/kg) of 367 µg/mL, a concentration at 60 min ([2]; 60 mg/kg) of 337 µg/mL and an IC50 (rat ETB receptors) of 230 nM. The concentration at 24 h [3] was 0.16 ± 0.01 µg/mL, the Hygroscopicity [4] was “Hygroscopicity: CI-1034 is moderately hygroscopic” and the Stability on storage ([4]; 4 weeks at 80° C. or 40° C. and 70% relative humidity) was “CI-1034 was stable for 4 weeks when stored at 80 °C or 40 °C and 70% relative humidity. CI-1034 does not need special storage requirements, other than the usual protection from light”. The “thermally stable up to” value ([4]; begins to melt with decomposition) was “Thermal Properties: CI-1034 is thermally stable up to approximately 300° C., where it begins to melt with decomposition”, the Stability ([4]; exposed to hydrogen peroxide) was “No significant degradation” and the Stability ([4]; exposed to simulated sunlight) was “# peroxide. In contrast, samples exposed to simulated sunlight showed degradation”. The Stability ([4]; heated in acid, base, or water, protected from light) was “stable”, the logD ([5]; pH 1, 0.1N Hydrochloric Acid) was 3.24 and the logD ([5]; pH 4, 0.05 M Sodium Acetate Buffer) was 2.93. It also gave a logD ([5]; pH 7.4, 0.05 M Potassium Phosphate Buffer) of 0.56, a bioavailability [6] of about 10% and a Ki (human ETA receptors; Scatchard analysis, read-out: Ki (inhibitor constant of unlabeled antagonist)) of 0.51 nM. The “effect on Bmax (maximal [125I]ET-1 binding)” value (human ETA receptors; saturation binding) was “without significantly affecting”, the “effect on apparent Kd of [125I]ET-1 binding” value (human ETA receptors; saturation binding) was “reduced” and the IC50 (rat ETA receptors) was 3.3 nM. For the same compound, the “peak pressor response to bET-1 challenge (MAP increase)” value ([7]; 30 mg/kg oral gavage 24 hours before bET-1 1 nmol/kg IV) was 35±7 mm Hg, the “inhibition of the bET-1 pressor response compared to vehicle” value ([7]; 30 mg/kg oral gavage 24 hours before challenge, p<0.05) was 39% and the “metabolic profiles across species” value [8] was “qualitatively similar metabolic profiles”. The QTc intervals (healthy subjects) was “No prolonged QTc intervals”, the “most frequent adverse events” value (healthy subjects) was “headache, somnolence, nausea, and dyspepsia” and the serious adverse events (healthy subjects) was “no treatment-related serious adverse events”. The “changes in C-reactive protein” value (healthy subjects; Study 1034-001) was “no significant changes”, the tolerance (healthy subjects; single 400 mg dose with single 2-mg dose of midazolam syrup, Study 1034-005) was “well-tolerated” and the tolerance (healthy subjects; single 150-mg doses with or without a high-fat breakfast, Study 1034-004) was “well-tolerated”. For the same compound, the tolerance (healthy subjects; single doses up to 400 mg, Study 1034-001) was “well-tolerated”, the laboratory abnormalities (healthy subjects; sporadic and transient) was “unrelated to CI-1034 administration” and the “intensity of adverse reactions” value (healthy subjects; transient) was “mild or moderate”. The solubility (Solubility; 0.05 M pH 4 acetate buffer) was “very slightly soluble”, the solubility (Solubility; 0.05 M pH 7.4 potassium phosphate buffer) was “very slightly soluble” and the solubility (Solubility; 0.1N HCl) was “insoluble”. For the same compound, the “pH of aqueous solution” value (Solubility; 100 mg/mL solution in water) was 8.9, the “concentration after 24 hours” value (Solubility; 0.5 M pH 7.4 potassium phosphate buffer, after 24 hours) was “approximately 0.8 mg/mL” and the “concentration reached on rapid dissolution” value (Solubility; 0.5 M pH 7.4 potassium phosphate buffer, initial) was “approximately 13 mg/mL”. For the same compound, the solubility (Solubility; acetonitrile) was “slightly soluble”, the solubility (Solubility; chloroform) was “very slightly soluble” and the solubility (Solubility; dichloromethane) was “very slightly soluble”. The solubility (Solubility; dimethylsulfoxide) was “freely soluble”, the solubility (Solubility; ethanol) was “sparingly soluble” and the solubility (Solubility; hexane) was “insoluble”. For the same compound, the solubility (Solubility; isopropanol) was “insoluble”, the solubility (Solubility; methanol) was “freely soluble” and the solubility (Solubility; tetrahydrofuran) was “slightly soluble”. For the same compound, the solubility (Solubility; water) was “freely soluble”.
